Test results reported in patent publication US20150168420A1, “BIOORTHOGONAL CHEMICAL INDUCERS OF REVERSIBLE DIMERIZATION FOR CONTROL OF PROTEIN FUNCTION IN CELLS” (MAX-PLANCK-GESELLSCHAFT ZUR FÖRDERUNG DER WISSENSCHAFTEN …, priority 2012, published 2015).
Entries after “also recorded” stand apart in the source; their conditions may differ.

What was measured:
[1] = biological target: wild type FKBP (Homo sapiens, UniProt P62942); settings: cited from earlier work
[2] = biological target: FKBP(F36V) (Homo sapiens, UniProt P62942, F37V); settings: cited from earlier work
[3] = system: Beclin1; settings: starved EGFP-LC3 MCF-7 cells, 1 μM
[4] = biological target: Citrine-eDHFR-PM and Cherry-FKBP WT (Escherichia coli, UniProt P0ABQ4); assay: Translocation to plasma membrane and FLIM in MCF-7 cells, FKBP WT; format: cell-based; settings: 2 μM, 2 h

CCC(C)(C)C(=O)C(=O)N1CCCC[C@H]1C(=O)O[C@H](CCc1ccc(OC)c(OC)c1)c1cccc(OCC(=O)O)c1 [SLF]
Kd ([1]; read-out: Kd for endogenous FKBP): 10 to 20 nM
affinity to FKBP(F36V) ([2]; in words): low affinity

CCC(C(=O)N1CCCCC1C(=O)O[C@H](CCc1ccc(OC)c(OC)c1)c1cccc(OCC(=O)NCCCOCCOCCOCCCNC(=O)COc2c(OC)cc(Cc3cnc(N)nc3N)cc2OC)c1)c1cc(OC)c(OC)c(OC)c1 (some centres unmarked) [SLF′-TMP]
autophagy (LC3 puncta) on Beclin1 knock off / knock on [3]: Inhibition of autophagy

CCC(C(=O)N1CCCCC1C(=O)O[C@H](CCc1ccc(OC)c(OC)c1)c1cccc(OCC(=O)O)c1)c1cc(OC)c(OC)c(OC)c1 (some centres unmarked) [SLF′]
binding to naturally occurring (unmutated) FKBP ([1]; in words): does not bind at all; also recorded: very low affinity
fold lower affinity for wild type FKBP than for mutant FKBP(F36V) ([1]; wild type versus F36V): > 1000 fold
Kd ([2]; read-out: Kd for binding domain of FKBP(F36V)): 0.094 nM

CCC(C)(C)C(=O)C(=O)N1CCCCC1C(=O)O[C@H](CCc1ccc(OC)c(OC)c1)c1cccc(NC(=O)CCC(=O)NCCCOCCOCCOCCCNC(=O)COc2c(OC)cc(Cc3cnc(N)nc3N)cc2OC)c1 (some centres unmarked) [SLF-TMP]
translocation of cognate binding domain FKBP WT to the plasma membrane [4]: cannot induce translocation

COc1cc(Cc2cnc(N)nc2N)cc(OC)c1OC [TMP, 5-(3,4,5-trimethoxybenzyl)pyrimidine-2,4-diamine]
autophagy (LC3 puncta) on Beclin1 knock off / knock on [3]: Recovery of autophagy
